Measured values reported in US10683553B2, “Method for determining sensitivity to simultaneous inhibitor against PARP and Tankyrase” (THE ASAN FOUNDATION, priority 2015, dated 2020).

Columns and labels:
Format in all cases: cell-based
[1] = system: Caco-2 colon cancer cell line; assay: MTS cell viability / IC50; conditions: Homo sapiens
Method: (§1) The present inventors conducted an in vitro cell base assay to analyze the anticancer activity of Compound A, which is a novel PARP/Tankyrase simultaneous inhibitor, in 18 human colon cancer cell lines (Korean Cell Line Bank and ATCC purchased), and the cell viability and IC50 of the cell lines for Compound A, the novel PARP/Tankyrase simultaneous inhibitor, were measured.
(§2) As the experimental conditions and methods, a total of 18 human colon cancer cell lines were cultured in RPMI1640 (Roswell Park Memorial Institute 1640; 10% FBS, 1% penicillin/streptomycin), and each cell line was cultured in 96 well plate for 2×10^3 per well at 37° C. for 24 hours and the novel PARP/Tankyrase simultaneous inhibitor, Compound A, was diluted by a multiple of 2 at a maximum of 100 μM and a minimum of 0.390625 μM (100 μM, 50 μM, 25 μM, 12.5 μM, 6.25 μM, 3.125 μM, 1.5625 μM, 0.78125 μM and 0.390625 μM). After the treatment, it was cultured at 37° C. for 72 hours. As for the drug treatment group and non-treatment group, the cell viability of each cell line was measured by MTS analysis (Promega, CellTiter 96 AQeous One Solution) and the IC50 of each cell line was measured using the PRISM program.
(§3) The present inventors analyzed the correlation of 18 human colon cancer cell lines, an anti-cancer effect of Compound A which is a novel PARP/Tankyrase simultaneous inhibitor and the genotype of the p53 gene through an in vitro cell base assay in the same experimental method as Example 1 in 18 human colon cancer cell lines.

[2] = system: Colo201 colon cancer cell line; assay: MTS cell viability / IC50; conditions: Homo sapiens, COLO 201
Method: as §1, §2, §3

[3] = system: Colo205 colon cancer cell line; assay: MTS cell viability / IC50; conditions: Homo sapiens, COLO 205
Method: as §1, §2, §3

[4] = system: Colo320HSR colon cancer cell line; assay: MTS cell viability / IC50; conditions: Homo sapiens, COLO-320-HSR
Method: as §1, §2, §3

[5] = system: DLD-1 colon cancer cell line; assay: MTS cell viability / IC50; conditions: Homo sapiens
Method: as §1, §2, §3

[6] = system: HCT-15 colon cancer cell line; assay: MTS cell viability / IC50; conditions: Homo sapiens
Method: as §1, §2, §3

[7] = system: HCT116 colon cancer cell line; assay: MTS cell viability / IC50; conditions: Homo sapiens, HCT-116
Method: as §1, §2, §3

[8] = system: HT-29 colon cancer cell line; assay: MTS cell viability / IC50; conditions: Homo sapiens
Method: as §1, §2, §3

[9] = system: LoVo colon cancer cell line; assay: MTS cell viability / IC50; conditions: Homo sapiens
Method: as §1, §2, §3

[10] = system: Ls1034 colon cancer cell line; assay: MTS cell viability / IC50; conditions: Homo sapiens, LS-1034
Method: as §1, §2, §3

[11] = system: Ls174T colon cancer cell line; assay: MTS cell viability / IC50; conditions: Homo sapiens
Method: as §1, §2, §3

[12] = system: SW1417 colon cancer cell line; assay: MTS cell viability / IC50; conditions: Homo sapiens
Method: as §1, §2, §3

[13] = system: SW48 colon cancer cell line; assay: MTS cell viability / IC50; conditions: Homo sapiens
Method: as §1, §2, §3

[14] = system: SW480 colon cancer cell line; assay: MTS cell viability / IC50; conditions: Homo sapiens
Method: as §1, §2, §3

[15] = system: HCT116 human colon cancer cell line; assay: Western blot of r-H2AX and cleaved caspase 3; conditions: 50 μM, 48 hours
Text: (§4) In order to analyze the degree of DNA damage and the degree of apoptosis of Compound A, which is a novel PARP/Tankyrase simultaneous inhibitor, when the p53 gene is a normal type and the LIG4 gene is a mutant type, the present inventors treated a novel PARP/Tankyrase simultaneous inhibitor, Compound A, and the competitive drug PARP inhibitor; olaparib, in the HCT116 human colon cancer cell line in which the p53 gene and an LIG4 gene are normal types and in the RKO human colon cancer cell line in which the p53 gene is a normal type and an LIG4 gene is a mutant type, and then confirmed the DNA damage with the expression level of r-H2Ax by western blotting method and confirmed the degree of apoptosis with the expression level of cleaved caspase 3. The conditions and method of the experiment were as follows: The HCT116 human colon cancer cell line in which the p53 gene and an LIG4 gene are normal types and the RKO human colon cancer cell line in which the p53 gene is a normal type and an LIG4 gene is a mutant type were cultured in RPMI1640 (10% FBS, 1% penicillin/streptomycin) and cultured in a 60 mm plate at 1×10^5 per well for 24 hours at 37° C. Compound A, which is a novel PARP/Tankyrase simultaneous inhibitor, and olaparib, which is a competitive drug PARP inhibitor, were treated with 50 μM each and were cultured for 48 hours. Then, the cells were obtained using a centrifuge. Each cell thus obtained was dissolved using an RIPA buffer, and the proteins were extracted using a high-speed centrifuge. 30 μg protein per cell was electrophoresed by western blot method to separate proteins and transferred to PDVF membrane. The r-H2AX, truncated caspase 3, and b-actin antibody were diluted with each 1:2000 in 5% skim milk. Then, the cells were reacted at 4° C. for 12 hours and then washed three times for 15 minutes with TBS-T buffer. The secondary antibody was diluted with each 1:2000 ratio in 5% skim milk and reacted at room temperature for 2 hours. It was washed with TBS-T buffer three times for 15 minutes to induce luminescence of PDVF membrane using ECL (Enhanced Chemiluminescence) buffer solution to develop protein expression on each anti-body using an X-ray film.

[16] = system: RKO human colon cancer cell line; assay: Western blot of r-H2AX and cleaved caspase 3; conditions: 50 μM, 48 hours
Text: as §4

CCOc1cc(CN(C)C)cc2[nH]c(=O)c3c(c12)NCCC3 [Compound A, 8-[(dimethylamino)methyl]-10-ethoxy-1,2,3,4-tetrahydrobenzo[h][1,6]naphthyridin-5(6H)-one]
IC50 ([1]; Caco-2, p53 Mutant type cell line): 19.2 µM | IC50 ([1]; Caco-2, MTS, 72 hours): 19.2 µM | IC50 ([2]; Colo201, p53 Mutant type cell line): 28.4 µM | IC50 ([2]; Colo201, MTS, 72 hours): 28.4 µM | IC50 ([3]; Colo205, p53 Mutant type cell line): 24.4 µM | IC50 ([3]; Colo205, MTS, 72 hours): 24.4 µM | IC50 ([4]; Colo320, MTS, 72 hours): 8.27 µM | IC50 ([4]; Colo320HSR, p53 Mutant type cell line): 8.27 µM | IC50 ([5]; DLD-1, p53 Mutant type cell line): 85.6 µM | IC50 ([5]; DLD-1, MTS, 72 hours): 85.6 µM | IC50 ([6]; HCT-15, p53 Mutant type cell line): > 100 µM | IC50 ([6]; HCT-15, MTS, 72 hours): > 100 µM | IC50 ([7]; HCT116, p53 Wild-type cell line): 13.2 µM | IC50 ([7]; HCT116, MTS, 72 hours): 13.2 µM | IC50 ([8]; HT29, p53 Mutant type cell line): 32.2 µM | IC50 ([8]; MTS, 72 hours): 32.2 µM | IC50 ([9]; MTS, 72 hours): 18.6 µM | IC50 ([9]; p53 Wild-type cell line): 18.6 µM | IC50 ([10]; LS1034, p53 Mutant type cell line): > 100 µM | IC50 ([10]; Ls1034, MTS, 72 hours): > 100 µM | IC50 ([11]; LS174T, p53 Wild-type cell line): 12.2 µM | IC50 ([11]; Ls174T, MTS, 72 hours): 12.2 µM | IC50 ([12]; SW1417, p53 Mutant type cell line): > 100 µM | IC50 ([12]; SW1417, MTS, 72 hours): > 100 µM | IC50 ([13]; SW48, p53 Wild-type cell line): > 100 µM | IC50 ([13]; SW48, MTS, 72 hours): > 100 µM | IC50 ([14]; SW480, p53 Mutant type cell line): > 100 µM | IC50 ([14]; SW480, MTS, 72 hours): > 100 µM | expression amount of truncated caspase 3 (western blot) [15]: increased expression amount of the truncated caspase 3 | expression of r-H2AX (western blot) [15]: increased expression of r-H2AX than the group treated with olaparib | expression amount of truncated caspase 3 (western blot) [16]: increased expression amount of the truncated caspase 3 | expression of r-H2AX (western blot) [16]: increased expression of r-H2AX than the group treated with olaparib
